Source: patent US10745384B2, “Indazole derivatives as αv integrin antagonists” (BRISTOL-MYERS SQUIBB COMPANY, priority 2016, dated 2020)
Where a name gives a salt, the structure may show the parent alone.

Columns and labels:
human αVβ5 = human αVβ5 (Homo sapiens, UniProt P06756+P18084); assay: human αVβ5 HTRF binding assay
Method: (§1) All binding assays used the HTRF (homogeneous time resolved fluorescence) technology from Cisbio International, therefore all assays are described as HTRF binding assays. The assay results for the Examples are listed above together with the characterization data. The HTRF binding assays are established for the following integrins: human αVβ6, human αVβ1, human αVβ3, human αVβ5, and human αVβ8. All assays used the following assay buffer: 20 mM Tris, pH 7.4, 1 mM MgCl2, 1 mM MnCl2, 0.01% Tween 20, and 0.01% BSA. Alternatively, a SPA-based assay was used for evaluation of receptor binding.
(§2) The following describes the components and a representative procedure for the human αVβ6 HTRF binding assay: Recombinant human αVβ6 Integrin (R & D systems, 3817-AV) was biotinylated. Biotinylated human αVβ6 Integrin was added to assay vessel at a final concentration of 1.25 nM. FITC-conjugated fibronectin (Cytoskeleton, FNR02) was then added at the final concentration of 5 nM. The mixture was centrifuged at 600 rpm for three minutes using Thermo Fisher Heraeus Multifuge X3 centrifuge and then incubated at room temperature for an hour. Streptavidin Terbium (Cisbio international 610STLB) was then added at the final concentration of 0.625 nM. The resulting mixture was centrifuged at 600 rpm for three minutes using Thermo Fisher Heraeus Multifuge X3 centrifuge and then incubated at room temperature overnight in dark before reading HTRF signals. […]

human αVβ3 = human αVβ3 (Homo sapiens, UniProt P05106+P06756); assay: human αVβ3 HTRF binding assay
Chain of human αVβ3 (P06756 31-992 limits assumed): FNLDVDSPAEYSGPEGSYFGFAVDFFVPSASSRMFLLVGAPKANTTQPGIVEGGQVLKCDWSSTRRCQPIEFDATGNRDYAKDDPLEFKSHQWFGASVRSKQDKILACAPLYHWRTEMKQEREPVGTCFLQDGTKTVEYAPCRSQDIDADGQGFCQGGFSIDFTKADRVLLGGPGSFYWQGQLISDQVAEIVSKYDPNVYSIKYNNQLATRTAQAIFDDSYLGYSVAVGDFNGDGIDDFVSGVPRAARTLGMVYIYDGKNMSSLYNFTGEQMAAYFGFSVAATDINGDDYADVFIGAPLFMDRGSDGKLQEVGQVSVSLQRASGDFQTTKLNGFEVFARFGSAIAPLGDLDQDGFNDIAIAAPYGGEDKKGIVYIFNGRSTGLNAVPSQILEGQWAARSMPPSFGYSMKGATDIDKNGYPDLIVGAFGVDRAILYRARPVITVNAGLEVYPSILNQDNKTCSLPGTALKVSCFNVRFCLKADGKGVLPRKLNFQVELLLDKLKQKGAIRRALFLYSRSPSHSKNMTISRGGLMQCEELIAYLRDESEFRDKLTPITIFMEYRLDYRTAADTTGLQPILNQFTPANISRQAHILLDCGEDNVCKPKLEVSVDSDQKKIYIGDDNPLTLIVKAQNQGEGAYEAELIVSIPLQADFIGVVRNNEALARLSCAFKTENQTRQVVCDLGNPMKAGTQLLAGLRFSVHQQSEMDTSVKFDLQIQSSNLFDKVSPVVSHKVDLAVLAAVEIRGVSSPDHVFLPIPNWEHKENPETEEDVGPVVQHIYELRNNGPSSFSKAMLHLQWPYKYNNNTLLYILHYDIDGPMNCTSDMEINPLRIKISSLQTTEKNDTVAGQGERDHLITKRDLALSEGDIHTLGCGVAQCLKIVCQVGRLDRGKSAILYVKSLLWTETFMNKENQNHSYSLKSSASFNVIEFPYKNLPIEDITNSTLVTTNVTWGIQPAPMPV
Chain of human αVβ3 (P05106 27-718 limits assumed): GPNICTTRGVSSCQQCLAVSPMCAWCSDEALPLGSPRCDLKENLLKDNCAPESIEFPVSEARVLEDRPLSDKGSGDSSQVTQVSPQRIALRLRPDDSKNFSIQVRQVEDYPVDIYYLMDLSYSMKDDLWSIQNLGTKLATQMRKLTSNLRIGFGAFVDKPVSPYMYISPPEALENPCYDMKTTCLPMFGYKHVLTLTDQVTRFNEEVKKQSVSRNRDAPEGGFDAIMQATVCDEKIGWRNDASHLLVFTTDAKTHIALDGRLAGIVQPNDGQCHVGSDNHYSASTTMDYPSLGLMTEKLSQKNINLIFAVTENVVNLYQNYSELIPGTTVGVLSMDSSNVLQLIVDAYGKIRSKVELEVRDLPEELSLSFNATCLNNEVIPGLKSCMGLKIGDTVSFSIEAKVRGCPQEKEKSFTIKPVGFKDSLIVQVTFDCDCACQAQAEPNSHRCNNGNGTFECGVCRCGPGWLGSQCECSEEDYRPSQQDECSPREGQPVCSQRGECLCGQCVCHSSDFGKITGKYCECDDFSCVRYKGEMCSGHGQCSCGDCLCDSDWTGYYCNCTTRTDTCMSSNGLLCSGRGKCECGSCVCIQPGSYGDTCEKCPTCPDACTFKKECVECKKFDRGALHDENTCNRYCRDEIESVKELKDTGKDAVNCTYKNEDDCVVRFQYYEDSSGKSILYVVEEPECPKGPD
Method: as §1, §2

human αVβ6 = molecular target: T1, human αVβ6 (Homo sapiens, UniProt P06756+P18564); assay: human αVβ6 HTRF binding assay; conditions: recombinant human αVβ6 integrin, FITC-conjugated fibronectin
T1 construct: purchased R & D systems 3817-AV
T1 sequence (P06756 31-992 limits assumed): as the sequence (P06756 31-992 limits assumed) above
T1 sequence (P18564 22-707 limits assumed): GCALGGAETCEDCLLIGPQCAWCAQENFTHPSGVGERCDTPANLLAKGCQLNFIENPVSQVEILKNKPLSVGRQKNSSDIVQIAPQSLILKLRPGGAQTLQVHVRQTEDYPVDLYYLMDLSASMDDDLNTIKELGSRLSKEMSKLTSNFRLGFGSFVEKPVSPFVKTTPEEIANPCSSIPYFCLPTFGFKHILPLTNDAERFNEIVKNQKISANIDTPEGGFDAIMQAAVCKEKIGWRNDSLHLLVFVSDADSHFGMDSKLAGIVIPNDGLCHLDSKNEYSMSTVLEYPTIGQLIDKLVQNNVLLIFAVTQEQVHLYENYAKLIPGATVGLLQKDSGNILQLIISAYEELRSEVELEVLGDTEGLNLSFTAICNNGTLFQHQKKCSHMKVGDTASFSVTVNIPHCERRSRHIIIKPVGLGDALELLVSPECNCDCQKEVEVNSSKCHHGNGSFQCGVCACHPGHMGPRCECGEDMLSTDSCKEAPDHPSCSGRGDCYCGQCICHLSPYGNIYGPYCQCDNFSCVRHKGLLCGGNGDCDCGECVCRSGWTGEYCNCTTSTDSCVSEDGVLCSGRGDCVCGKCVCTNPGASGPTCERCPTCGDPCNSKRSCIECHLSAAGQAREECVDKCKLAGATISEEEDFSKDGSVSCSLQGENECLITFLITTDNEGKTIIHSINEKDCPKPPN
How it was run: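 HTRF binding in 20 mM Tris pH 7.4 with 1 mM MgCl2, 1 mM MnCl2, 0.01% Tween 20 and 0.01% BSA. For αVβ6, biotinylated integrin (1.25 nM) and FITC-fibronectin (5 nM) were incubated 1 h at RT, then streptavidin-terbium (0.625 nM) was added overnight in the dark. An SPA-based fibronectin binding format was an alternative.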

human αVβ1 = human αVβ1 (Homo sapiens, UniProt P05556+P06756); assay: human αVβ1 HTRF binding assay
Chain of human αVβ1 (P06756 31-992 limits assumed): as the sequence (P06756 31-992 limits assumed) above
Chain of human αVβ1 (P05556 21-728 limits assumed): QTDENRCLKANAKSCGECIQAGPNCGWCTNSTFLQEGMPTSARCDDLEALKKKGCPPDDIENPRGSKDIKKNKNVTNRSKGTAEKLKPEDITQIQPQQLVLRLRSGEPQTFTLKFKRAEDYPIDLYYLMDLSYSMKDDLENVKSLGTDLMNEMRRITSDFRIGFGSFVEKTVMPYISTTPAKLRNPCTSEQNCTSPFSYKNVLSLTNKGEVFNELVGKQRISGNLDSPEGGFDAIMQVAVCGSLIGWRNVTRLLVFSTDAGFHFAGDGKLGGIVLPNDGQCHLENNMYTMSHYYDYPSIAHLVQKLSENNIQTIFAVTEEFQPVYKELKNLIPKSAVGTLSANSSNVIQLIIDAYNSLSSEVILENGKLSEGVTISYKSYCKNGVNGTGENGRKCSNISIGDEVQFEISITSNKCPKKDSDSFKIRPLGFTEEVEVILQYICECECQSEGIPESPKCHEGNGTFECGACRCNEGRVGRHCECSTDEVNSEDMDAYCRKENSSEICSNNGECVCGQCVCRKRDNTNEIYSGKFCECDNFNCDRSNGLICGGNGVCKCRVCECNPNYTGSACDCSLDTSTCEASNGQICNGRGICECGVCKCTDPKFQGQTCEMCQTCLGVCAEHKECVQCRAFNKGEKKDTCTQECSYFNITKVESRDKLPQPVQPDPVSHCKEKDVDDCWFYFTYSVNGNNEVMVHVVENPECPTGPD
Method: as §1
The following describes the components and a representative procedure for the human αVβ6 HTRF binding assay: Recombinant human αVβ6 Integrin (R & D systems, 3817-AV) was biotinylated. Biotinylated human αVβ6 Integrin was added to assay vessel at a final concentration of 1.25 nM. FITC-conjugated fibronectin (Cytoskeleton, FNR02) was then added at the final concentration of 5 nM. The mixture was centrifuged at 600 rpm for three minutes using Thermo Fisher Heraeus Multifuge X3 centrifuge and then incubated at room temperature for an hour. Streptavidin Terbium (Cisbio international 610STLB) was then added at the final concentration of 0.625 nM. The resulting mixture was centrifuged at 600 rpm for three minutes using Thermo Fisher Heraeus Multifuge X3 centrifuge and then incubated at room temperature overnight in dark before reading HTRF signals.
The SPA-based assay was carried out according to the protocol and procedures similar to the ones described in the following reference with appropriate modifications to agents and ligands which are readily understood by one skilled in the art: Pachter J A, Zhang R, Mayer-Ezell R., “Scintillation proximity assay to measure binding of soluble fibronectin to antibody-captured αVβ1 integrin” Anal Biochem. 1995 Sep. 1; 230(1):101-7.

human αVβ8 = human αVβ8 (Homo sapiens, UniProt P06756+P26012); assay: human αVβ8 HTRF binding assay
Chain of human αVβ8 (P06756 31-992 limits assumed): as the sequence (P06756 31-992 limits assumed) above
Chain of human αVβ8 (P26012 43-684 limits assumed): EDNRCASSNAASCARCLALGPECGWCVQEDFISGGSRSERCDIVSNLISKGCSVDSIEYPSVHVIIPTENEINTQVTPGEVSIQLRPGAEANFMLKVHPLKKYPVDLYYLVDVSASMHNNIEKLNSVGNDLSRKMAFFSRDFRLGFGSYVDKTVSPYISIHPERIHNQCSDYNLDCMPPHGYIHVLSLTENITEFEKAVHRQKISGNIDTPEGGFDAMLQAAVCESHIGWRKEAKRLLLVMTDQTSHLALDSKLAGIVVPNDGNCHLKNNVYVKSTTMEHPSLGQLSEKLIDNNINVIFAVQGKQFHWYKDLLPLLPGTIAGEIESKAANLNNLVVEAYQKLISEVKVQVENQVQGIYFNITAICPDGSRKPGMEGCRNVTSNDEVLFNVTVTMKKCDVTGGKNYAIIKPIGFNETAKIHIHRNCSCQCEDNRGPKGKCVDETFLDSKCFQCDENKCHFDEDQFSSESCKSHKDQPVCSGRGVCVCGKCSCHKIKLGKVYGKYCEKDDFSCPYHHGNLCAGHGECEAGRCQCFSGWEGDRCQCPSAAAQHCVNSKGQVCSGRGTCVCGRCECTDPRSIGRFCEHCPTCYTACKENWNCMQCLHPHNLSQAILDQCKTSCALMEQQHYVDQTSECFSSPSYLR
Method: as §1, §2

Chain of human αVβ5 (P06756 31-992 limits assumed): as the sequence (P06756 31-992 limits assumed) above
Chain of human αVβ5 (P18084 24-719 limits assumed): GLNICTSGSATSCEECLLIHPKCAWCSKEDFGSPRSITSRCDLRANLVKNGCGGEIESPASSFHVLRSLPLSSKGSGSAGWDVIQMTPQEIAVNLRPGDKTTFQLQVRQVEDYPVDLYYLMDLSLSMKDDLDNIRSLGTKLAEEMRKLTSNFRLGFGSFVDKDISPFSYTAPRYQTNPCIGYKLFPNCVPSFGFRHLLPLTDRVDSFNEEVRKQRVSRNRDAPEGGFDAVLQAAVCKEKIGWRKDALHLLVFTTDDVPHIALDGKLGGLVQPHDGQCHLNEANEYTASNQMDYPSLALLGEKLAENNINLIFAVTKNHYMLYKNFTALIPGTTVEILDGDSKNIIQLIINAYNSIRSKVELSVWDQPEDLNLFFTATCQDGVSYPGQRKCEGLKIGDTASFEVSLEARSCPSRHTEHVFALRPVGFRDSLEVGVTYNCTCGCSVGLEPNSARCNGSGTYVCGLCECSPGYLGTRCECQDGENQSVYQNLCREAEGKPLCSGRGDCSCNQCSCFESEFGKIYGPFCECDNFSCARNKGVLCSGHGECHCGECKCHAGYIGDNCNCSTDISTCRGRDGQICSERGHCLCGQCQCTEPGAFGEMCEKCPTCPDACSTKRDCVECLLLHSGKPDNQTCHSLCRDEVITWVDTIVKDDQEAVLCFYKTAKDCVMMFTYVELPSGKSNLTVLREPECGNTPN

Row | IC50 (human αVβ5) [nM] | IC50 (human αVβ3) [nM] | IC50 (human αVβ6) [nM] | IC50 (human αVβ1) [nM] | IC50 (human αVβ8) [nM] | SMILES
1 | 0.22 | 2.3 | 6.2 | 83 | 510 | COc1ccc([C@H](CC(=O)O)n2ncc3cc(OCCc4ccc5c(n4)NCCC5)ccc32)cn1 [Example 41, (S)-3-(6-Methoxypyridin-3-yl)-3-(5-(2-(5,6,7,8-tetrahydro-1,8-naphthyridin-2-yl)ethoxy)-1H-indazol-1-yl)propanoic acid]
2 | 0.54 | 3.8 | 5.5 | 270 | 4400 | O=C(O)CC(c1cnc2ccccc2c1)n1ncc2cc(OCCc3ccc4c(n3)NCCC4)ccc21 (centres unmarked) [Example 48, 3-(Quinolin-3-yl)-3-(5-(2-(5,6,7,8-tetrahydro-1,8-naphthyridin-2-yl)ethoxy)-1H-indazol-1-yl)propanoic acid, TFA]
3 | 1.5 | 4.4 | 8.2 | 740 | 3200 | COc1ccc([C@H](CC(=O)O)n2cc3ccc(CCC4CCc5cccnc5N4)cc3n2)cn1 (stereo partly drawn) [Example 72, (3S)-3-(6-Methoxypyridin-3-yl)-3-(6-(2-(1,2,3,4-tetrahydro-1,8-naphthyridin-2-yl)ethyl)-2H-indazol-2-yl)propanoic acid]
4 | 0.39 | 2.8 | 5.8 | 170 | 5000 | CCOc1ncc(C(CC(=O)O)n2ncc3cc(OCCc4ccc5c(n4)NCCC5)ccc32)cn1 (centres unmarked) [Example 77, 3-(2-Ethoxypyrimidin-5-yl)-3-(5-(2-(5,6,7,8-tetrahydro-1,8-naphthyridin-2-yl)ethoxy)-1H-indazol-1-yl)propanoic acid, TFA]
5 | 2.2 | 4.1 | 4.7 | 360 | 5000 | O=C(O)C[C@@H](c1cnc2ccccc2c1)n1cc2ccc(CCC3CCc4cccnc4N3)cc2n1 (stereo partly drawn) [Example 83, (3S)-3-(Quinolin-3-yl)-3-(6-(2-(1,2,3,4-tetrahydro-1,8-naphthyridin-2-yl)ethyl)-2H-indazol-2-yl)propanoic acid]
6 | 3.2 | 2.3 | 1.3 | 10000 | 3300 | O=C(O)C[C@@H](c1cnc2ccccc2c1)n1cc2ccc(CCCc3ccc4c(n3)NCCC4)cc2n1 [Example 87, (S)-3-(Quinolin-3-yl)-3-(6-(3-(5,6,7,8-tetrahydro-1,8-naphthyridin-2-yl)propyl)-2H-indazol-2-yl)propanoic acid]
7 | 0.42 | 3.1 | 19 | 370 | 5000 | O=C(O)CC(c1cncc(CO)c1)n1ncc2cc(OCCc3ccc4c(n3)NCCC4)ccc21 (centres unmarked) [Example 89, 3-(5-(Hydroxymethyl)pyridin-3-yl)-3-(5-(2-(5,6,7,8-tetrahydro-1,8-naphthyridin-2-yl)ethoxy)-1H-indazol-1-yl)propanoic acid]
8 | 0.39 | 2.4 | 31 | 210 | 5000 | COc1ncc(C(CC(=O)O)n2ncc3cc(OCCc4ccc5c(n4)NCCC5)ccc32)cn1 (centres unmarked) [Example 92, 3-(2-Methoxypyrimidin-5-yl)-3-(5-(2-(5,6,7,8-tetrahydro-1,8-naphthyridin-2-yl)ethoxy)-1H-indazol-1-yl)propanoic acid, TFA]
9 | 0.59 | 2.6 | 10 | 100 | 5000 | O=C(O)CC(c1cnc2c(c1)OCCN2)n1ncc2cc(OCCc3ccc4c(n3)NCCC4)ccc21 (centres unmarked) [Example 97, TFA]
10 | 0.41 | 2.9 | 14 | 140 | 4400 | O=C(O)C[C@@H](c1cncc(CO)c1)n1ncc2cc(OCCc3ccc4c(n3)NCCC4)ccc21 [Example 100, (5)-3-(5-(Hydroxymethyl)pyridin-3-yl)-3-(5-(2-(5,6,7,8-tetrahydro-1,8-naphthyridin-2-yl)ethoxy)-1H-indazol-1-yl)propanoic acid]
